Test results from US4189484A, “Antihypertensive quinazoline derivatives” (priority 1977, dated 1980).

Legend:
[1] = tested on: spontaneously hypertensive rats (SHR); assay: Antihypertensive effect, oral administration to spontaneously hypertensive rats (mean blood pressure and heart rate); format: in vivo, rat; conditions: for Change in blood pressure after 3 hrs. from administration: Table 1; for Changes in blood pressure (BP) after oral administration / Changes in heart rate (HR) after oral administration: Table 2, male SHR, n=5, p.o.
Protocol: Antihypertensive effect was determined by oral administration of the test compound to spontaneously hypertensive rats (hereinafter referred to as SHR).
These SHR were anesthetized with ether and chronically embedded with a cannula for determination of blood pressure so that one end of the said cannula may be placed in abdominal aorta and the other end thereof may be projected out of dorsal neck. When rats regained their body weight before operation in more than 1 week from operation, the test compound was given. Determination was made by measuring a mean blood pressure and a heart rate under unanesthetized and unrestrained conditions with the cannula connected to an electronic recording system. The test compound was suspended in a 1% tragacanth gum solution to make up a concentration so as to be a volume of 5 ml./kg. and then orally given.

[2] = tested on: ICR strain male mice; assay: in vivo; format: in vivo; conditions: for No. of deceased animal: 8 animals per group, 1 week
Protocol: (§1) ICR strain male mice, weighing 30-35 g., were deprived of food for 6 hours (water ad libitum) and then used in the experiment. Each group consisted of 8 animals. The test compound was suspended in a 1% tragacanth gum solution so as to be a volume of 40 ml./kg. and orally given. After administration, numbers of deceased animals, changes in body weight and other general states were observed or determined over 1 week.
(§2) Survived mice were autopsyed.

[3] = in vivo; format: in vivo; conditions: mouse, in vivo, po; mice
Protocol: as §1, §2

[4] = tested on: Adrenergic α-receptor; assay: Adrenergic α-receptor blocking effect (inhibition of hypertensive action of i.v. adrenalin hydrochloride); format: in vivo, Wistar strain male rats; conditions: relative to prazosin
Protocol: Wistar strain male rats, weighing 250-300 g., were used in this experiment. The rat was anesthetized with pentobarbital sodium and fitted in the right femoral artery with a cannula for determination of blood pressure and in the left femoral vein with another cannula for intravenous injection, the former cannula being connected to an electronic recording system to measure a blood pressure.
Adrenergic α-receptor blocking effect was determined upon whether a hypertensive action with intravenous injection of adrenalin hydrochloride at 0.3 or 1 μg./kg. may be reserved by pretreatment with the test compound.

COc1cc2nc(N3CCN(C(=O)C=Cc4ccccc4)CC3)nc(N)c2cc1OC [Compound No. 1, 2-(4-Cinnamoylpiperazin-1-yl)-4-amino-6,7-dimethoxyquinazoline]
time of maximum antihypertensive effect from oral administration ([1]; SHR, p.o.): 3 to 6 h | antihypertensive effect, dose dependence ([1]; SHR, p.o., 0.3-3 mg./kg., in words): correlated with a dose | Change in blood pressure after 3 hrs. from administration ([1]; SHR, p.o., 1 mg./kg., 3 hrs.): -18 mmHg | Change in blood pressure after 3 hrs. from administration ([1]; SHR, p.o., 10 mg./kg., 3 hrs.): -53 mmHg | Changes in blood pressure (BP) after oral administration ([1]; 0.3 mg./kg., 1 hr.): -14±5.1 mm.Hg. | Changes in heart rate (HR) after oral administration ([1]; 0.3 mg./kg., 1 hr.): -5.3±3.9 no/min. | Changes in blood pressure (BP) after oral administration ([1]; 0.3 mg./kg., 3 hrs.): -16±3.3 mm.Hg. | Changes in heart rate (HR) after oral administration ([1]; 0.3 mg./kg., 3 hrs.): -3.8±7.4 no/min. | Changes in blood pressure (BP) after oral administration ([1]; 0.3 mg./kg., 6 hrs.): -19±1.9 mm.Hg. | Changes in heart rate (HR) after oral administration ([1]; 0.3 mg./kg., 6 hrs.): 0.3±5.9 no/min. | Changes in blood pressure (BP) after oral administration ([1]; 0.3 mg./kg., 24 hrs.): 4±4.3 mm.Hg. | Changes in heart rate (HR) after oral administration ([1]; 0.3 mg./kg., 24 hrs.): 3.9±7.1 no/min. | Changes in blood pressure (BP) after oral administration ([1]; 1 mg./kg., 1 hr.): -20±1.6 mm.Hg. | Changes in heart rate (HR) after oral administration ([1]; 1 mg./kg., 1 hr.): -4.8±4.1 no/min. | Changes in blood pressure (BP) after oral administration ([1]; 1 mg./kg., 3 hrs.): -26±3.3 mm.Hg. | Changes in heart rate (HR) after oral administration ([1]; 1 mg./kg., 3 hrs.): -1.5±4.7 no/min. | Changes in blood pressure (BP) after oral administration ([1]; 1 mg./kg., 6 hrs.): -27±4.1 mm.Hg. | Changes in heart rate (HR) after oral administration ([1]; 1 mg./kg., 6 hrs.): -7.9±2.7 no/min. | Changes in blood pressure (BP) after oral administration ([1]; 1 mg./kg., 24 hrs.): -2±1.2 mm.Hg. | Changes in heart rate (HR) after oral administration ([1]; 1 mg./kg., 24 hrs.): -0.5±3.2 no/min. | Changes in blood pressure (BP) after oral administration ([1]; 3 mg./kg., 1 hr.): -40±3.5 mm.Hg. | Changes in heart rate (HR) after oral administration ([1]; 3 mg./kg., 1 hr.): 6.9±5.4 no/min. | Changes in blood pressure (BP) after oral administration ([1]; 3 mg./kg., 3 hrs.): -35±4.4 mm.Hg. | Changes in heart rate (HR) after oral administration ([1]; 3 mg./kg., 3 hrs.): -1.7±5.5 no/min. | Changes in blood pressure (BP) after oral administration ([1]; 3 mg./kg., 6 hrs.): -35±3.5 mm.Hg. | Changes in heart rate (HR) after oral administration ([1]; 3 mg./kg., 6 hrs.): 10.0±8.3 no/min. | Changes in blood pressure (BP) after oral administration ([1]; 3 mg./kg., 24 hrs.): -4±4.3 mm.Hg. | Changes in heart rate (HR) after oral administration ([1]; 3 mg./kg., 24 hrs.): 19.5±7.2 no/min. | Body weight gain after 7 days ([2]; p.o., 1,250 mg./kg.): +3.9 g. | No. of deceased animal ([2]; p.o., 1,250 mg./kg.): 0 | Body weight gain after 7 days ([2]; p.o., 2,500 mg./kg.): +4.0 g. | No. of deceased animal ([2]; p.o., 2,500 mg./kg.): 0 | Body weight gain after 7 days ([2]; p.o., 5,000 mg./kg.): +4.7 g. | No. of deceased animal ([2]; p.o., 5,000 mg./kg.): 0 | LD50 at 168 h [3]: > 5000 mg/kg | α-receptor blocking action as compared with the action of prazosin [4]: 1/10
